This assay deals with pooled citrated plasma. In words: in vitro activated partial thromboplastin time (APTT) assay. Conditions: hirudin at concentrations above 2 μg/mL. The arrangement: species or system mice. As to the method: The anticoagulant activity of the thrombin inhibitors disclosed herein is determined by measuring their ability to prolong clotting of human plasma in vitro using a clinical TT assay. Briefly, human plasma from healthy donors (800 μL) is mixed with a concentration range of inhibitors, clotting initiated by addition of thrombin, and clotting time measured using a coagulometer. Compounds which prolong clotting time to 30 sec at a concentration of 50 nM may be further investigated in vitro/ex vivo for APTT. In brief, pooled citrated plasma from C57BL6/J mice is pre-incubated with various concentrations (0-12 μg/mL) of inhibitors. APTT of each plasma sample is quantified following addition of a coagulation activator and CaCl2). In an ex vivo assay, mice are injected i.v. with inhibitors (fixed concentration determined from in vitro APTT) and whole blood collected into sodium citrate (˜130 μL) 0, 5, 30 and 60 min post-administration. APTT is quantified on isolated plasma using a RANDOX APTT kit, with fibrin generation monitored to measure clotting time.
We investigated the ability of the inhibitor of Example 2 (A^Aa) to prolong clotting time in an in vitro activated partial thromboplastin time (APTT) assay (FIG. 1A).

In the case of hirudin, the “increase in clotting time (APTT)” value is 8 fold.

Values taken from patent publication US11091535B2, “Thrombin inhibitors for treatment of stroke and related coagulative disorders” (THE UNIVERSITY OF SYDNEY, priority 2016, dated 2021).
